Data as given in publication PMC1618416, “The Liganding of Glycolipid Transfer Protein Is Controlled by Glycolipid Acyl Structure” (PLoS Biology, 2006).
Blank lines part the entries; values can stand above or below the compound they belong to.

Assays:
Assay type in all cases: binding
[1] = target: T1, glycolipid transfer protein (GLTP) (Homo sapiens, UniProt Q9NZD2); test: X-ray crystal structure; tryptophan fluorescence Kd; parameters: recombinant human GLTP, His6- and S-tags removed by Factor Xa
T1 sequence (Q9NZD2 2-209): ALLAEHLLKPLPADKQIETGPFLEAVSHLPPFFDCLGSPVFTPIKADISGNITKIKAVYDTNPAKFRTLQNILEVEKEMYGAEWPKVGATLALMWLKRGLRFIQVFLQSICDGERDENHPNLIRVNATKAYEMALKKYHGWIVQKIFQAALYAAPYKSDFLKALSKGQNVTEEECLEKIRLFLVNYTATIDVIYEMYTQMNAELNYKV

[2] = target: T1, glycolipid transfer protein (GLTP); test: tryptophan fluorescence Kd (crystal structure 1SX6 from earlier paper); parameters: recombinant human GLTP
[3] = target: T1, glycolipid transfer protein (GLTP); test: X-ray crystal structure ([…] Å); tryptophan fluorescence Kd; parameters: recombinant human GLTP, His6- and S-tags removed by Factor Xa
[4] = target: T1, glycolipid transfer protein (GLTP); test: X-ray crystal structure; parameters: recombinant human GLTP, His6- and S-tags removed by Factor Xa

SMILES: CCCCCCCCCCCCC/C=C/[C@@H](O)[C@H](CO[C@@H]1O[C@H](CO)[C@@H](O[C@@H]2O[C@H](CO)[C@H](O)[C@H](O)[C@H]2O)[C@H](O)[C@H]1O)NC(=O)CCCCCCC [8:0 LacCer, N-octanoyl lactosylsphingosine]
- Kd [1]: 0.2 µM

SMILES: CCCCCCO[C@@H]1O[C@H](CO)[C@@H](O)[C@H](O)[C@H]1O [n-hexyl-β-D-glucoside]
- X-ray crystal structure [4]: The sugar headgroup of n-hexyl-β-D-glucoside binds the GLTP recognition center in a manner similar to all GSL-GLTP complexes

Other lines, results leading:

- Kd [2]: 0.27 µM
SMILES: CCCCCCCC/C=C\CCCCCCCC(=O)N[C@@H](CO[C@@H]1O[C@H](CO)[C@@H](O[C@@H]2O[C@H](CO)[C@H](O)[C@H](O)[C@H]2O)[C@H](O)[C@H]1O)[C@H](O)/C=C/CCCCCCCCCCCCC [18:1 LacCer, N-cis-9-octadecenoyl lactosylsphingosine]

- Kd [1]: 0.2 µM
SMILES: CCCCC/C=C\C/C=C\CCCCCCCC(=O)N[C@@H](CO[C@@H]1O[C@H](CO)[C@H](O)[C@H](O)[C@H]1O)[C@H](O)/C=C/CCCCCCCCCCCCC [18:2 GalCer, N-cis-N-cis-9,12-octadecenoyl galactosyl-sphingosine]

- Kd [3]: 0.25 µM
SMILES: CCCCCCCC/C=C\CCCCCCCCCCCCCC(=O)N[C@@H](CO[C@@H]1O[C@H](CO)[C@H](O)[C@H](O)[C@H]1O)[C@H](O)/C=C/CCCCCCCCCCCCC [24:1 GalCer, N-cis-15-tetracosenoyl galactosyl-sphingosine]
